Results as given in PMC7316778 (Nature Communications, 2020).
Several values for one entry are separate records, joined by “and”; a condition that tells them apart may be missing. Identical values can stand only once. Like-named read-outs stand apart in the source and are kept apart here.

What was measured:
PAK1 = PAK1 (Homo sapiens, UniProt Q13153); assay: SelectScreen kinase assay
Procedure: (§1) Selectivity profiling assays were performed by the Invitrogen SelectScreen™ Services. […] The concentration of ATP was selected to be equal to the KM, unless indicated otherwise.

[1] = target: PIK3CB/PIK3R1 (p110 beta/p85 alpha) (Homo sapiens, UniProt P42338); assay: SelectScreen kinase assay
Procedure: as §1

PIK3CG (p110 gamma) = PIK3CG (p110 gamma) (Homo sapiens, UniProt P48736); assay: SelectScreen kinase assay
Procedure: as §1

PIP5K1C = PIP5K1C (Homo sapiens, UniProt O60331); assay: SelectScreen kinase assay
Procedure: as §1

STK32C (YANK3) = STK32C (YANK3) (Homo sapiens, UniProt Q86UX6); assay: SelectScreen kinase assay
Procedure: as §1

CAMKK1 (CAMKKA) = CAMKK1 (CAMKKA) (Homo sapiens, UniProt Q8N5S9); assay: SelectScreen kinase assay
Procedure: as §1

LYN A = LYN A (Homo sapiens, UniProt P07948); assay: SelectScreen kinase assay
Procedure: as §1

PKN1 (PRK1) = PKN1 (PRK1) (Homo sapiens, UniProt Q16512); assay: SelectScreen kinase assay
Procedure: as §1

[2] = test system: panel of 380 wild-type, mammalian kinases; assay: SelectScreen selectivity profiling, whole panel; assay type: biochemical
Procedure: Supplementary Figure 4. Single-point selectivity screen of WEL028 on a panel of 380 kinases. All data were obtained from SelectScreen™ selectivity profiling service. Assays were performed at 1 μM WEL028 with 1 h preincubation. The ATP concentration was equal to the kinase K M, except for those indicated († = LanthaScreen technology, no ATP; * = 100 µM ATP; ** = 10 µM ATP). Values represent mean percentage inhibition compared to vehicle -treated control (n = 2). […]
inhibition from minimum (0%, white) to maximum (100%, red). Source data are provided as a Source

MAP3K10 (MLK2) = MAP3K10 (MLK2) (Homo sapiens, UniProt Q02779); assay: SelectScreen kinase assay
Procedure: as §1

ROCK1 = ROCK1 (Homo sapiens, UniProt Q13464); assay: SelectScreen kinase assay
Procedure: as §1

MAPK11 (p38 beta) = MAPK11 (p38 beta) (Homo sapiens, UniProt Q15759); assay: SelectScreen kinase assay
Procedure: as §1

PTK2B (FAK2) = PTK2B (FAK2) (Homo sapiens, UniProt Q14289); assay: SelectScreen kinase assay
Procedure: as §1

DAPK3 (ZIPK) = DAPK3 (ZIPK) (Homo sapiens, UniProt O43293); assay: SelectScreen kinase assay; settings: for Inhibition at 1 µM (%): DAPK3 (ZIPK), ZLYTE, ATP Km app
Procedure: as §1

[3] = target: T1, FES^S700C-SYK interaction (Homo sapiens, UniProt P07332, S700C); assay: Co-immunoprecipitation in co-transfected U2OS cells; assay type: cell-based; settings: WEL028 200 nM, 1 h
T1 construct: Full-length human cDNA encoding FES and PAK4 was obtained from Source Bioscience; expressed in transfected cells; host or cells: U2OS (human osteosarcoma)
Procedure: U2OS cells were co-transfected with FLAG-tagged FES and V5-tagged SYK and grown for 48 h as described above, followed by incubation with vehicle or WEL028 (200 nM) for 1 h. Cells were then washed with PBS and collected by scraping in IP-buffer (20 mM Tris-HCl pH 7.5, 150 mM NaCl, 1% Triton X-100 supplemented with […] Halt™ phosphatase and protease inhibitor cocktail (Thermo Fisher)). Cells were lysed by sonication on ice (three cycles of 10′′ on, 10′′ off at 25% maximum amplitude), centrifuged (14,000g, 10 min, 4 °C). The clear lysate was diluted to 1 mg/mL in IP-buffer and subjected to immunoprecipitation using Dynabeads™ Protein G Immunoprecipitation kit (Thermo Fisher) following manufacturer’s protocol. Briefly, anti-FLAG M2 antibody (1:100, Sigma Aldrich, F3156) was incubated with beads with gentle rotation (10 min, rt), after which lysate (500 µL of 1 mg/mL) was added and incubated (1 h, 4 °C). Beads were washed three times, transferred to clean tubes and eluted by suspension in 2× Laemmli buffer (50 µL, 10 min, 70 °C). Samples (10 µL per lane) were resolved by SDS-PAGE and immunoblotted using anti-V5 or anti-FLAG antibodies. Immunoprecipitations were performed in three independent replicates.

CSNK1G1 (CK1 gamma 1) = CSNK1G1 (CK1 gamma 1) (Homo sapiens, UniProt Q9HCP0); assay: SelectScreen kinase assay; settings: for Inhibition at 1 µM (%): CSNK1G1 (CK1 gamma 1), ZLYTE, ATP Km app
Procedure: as §1

[4] = read-out: Inhibition at 1 µM (%)
[5] = 1 h, 1 μM WEL028, 1 h preincubation
[6] = 1 µM, ZLYTE, ATP Km app, listed as WEL028, 1 µM

Sequence of LYN A (P07948 whole entry): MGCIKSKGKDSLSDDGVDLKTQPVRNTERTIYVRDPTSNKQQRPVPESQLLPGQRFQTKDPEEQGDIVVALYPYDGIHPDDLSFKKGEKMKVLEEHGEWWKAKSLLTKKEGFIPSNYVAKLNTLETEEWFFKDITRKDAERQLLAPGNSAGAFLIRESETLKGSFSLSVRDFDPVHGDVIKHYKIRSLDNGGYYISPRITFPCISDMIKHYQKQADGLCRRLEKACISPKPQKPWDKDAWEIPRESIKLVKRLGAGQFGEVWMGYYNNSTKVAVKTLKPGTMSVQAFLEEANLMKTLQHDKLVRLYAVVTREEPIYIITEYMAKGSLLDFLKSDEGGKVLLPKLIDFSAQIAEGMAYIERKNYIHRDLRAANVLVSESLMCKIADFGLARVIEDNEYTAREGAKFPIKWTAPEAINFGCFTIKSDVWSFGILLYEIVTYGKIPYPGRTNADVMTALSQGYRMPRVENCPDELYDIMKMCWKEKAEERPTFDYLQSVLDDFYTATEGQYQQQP
Sequence of MAPK11 (p38 beta) (Q15759 whole entry): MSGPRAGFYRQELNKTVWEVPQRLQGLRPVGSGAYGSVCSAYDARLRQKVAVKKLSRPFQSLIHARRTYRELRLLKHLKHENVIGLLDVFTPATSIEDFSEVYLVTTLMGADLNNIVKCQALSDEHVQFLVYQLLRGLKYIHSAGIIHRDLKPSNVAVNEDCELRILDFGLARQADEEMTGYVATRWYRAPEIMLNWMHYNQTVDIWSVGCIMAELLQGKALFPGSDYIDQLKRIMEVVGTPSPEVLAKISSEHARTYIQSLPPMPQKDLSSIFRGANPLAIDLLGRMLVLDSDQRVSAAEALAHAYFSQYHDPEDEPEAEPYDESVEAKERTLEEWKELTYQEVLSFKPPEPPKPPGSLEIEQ
Sequence of CSNK1G1 (CK1 gamma 1) (Q9HCP0 whole entry): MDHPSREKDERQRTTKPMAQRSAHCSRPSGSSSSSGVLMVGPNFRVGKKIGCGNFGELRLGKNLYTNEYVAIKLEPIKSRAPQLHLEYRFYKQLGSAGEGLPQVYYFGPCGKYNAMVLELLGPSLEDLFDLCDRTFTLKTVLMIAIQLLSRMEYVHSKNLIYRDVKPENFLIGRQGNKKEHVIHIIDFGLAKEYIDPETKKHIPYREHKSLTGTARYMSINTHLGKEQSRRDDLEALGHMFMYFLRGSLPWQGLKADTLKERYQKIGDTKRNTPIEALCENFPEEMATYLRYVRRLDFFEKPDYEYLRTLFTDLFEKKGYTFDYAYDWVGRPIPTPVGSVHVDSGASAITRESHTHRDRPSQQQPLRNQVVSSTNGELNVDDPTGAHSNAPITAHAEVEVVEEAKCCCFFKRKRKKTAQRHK
Sequence of PIK3CB/PIK3R1 (p110 beta/p85 alpha) (P42338 whole entry): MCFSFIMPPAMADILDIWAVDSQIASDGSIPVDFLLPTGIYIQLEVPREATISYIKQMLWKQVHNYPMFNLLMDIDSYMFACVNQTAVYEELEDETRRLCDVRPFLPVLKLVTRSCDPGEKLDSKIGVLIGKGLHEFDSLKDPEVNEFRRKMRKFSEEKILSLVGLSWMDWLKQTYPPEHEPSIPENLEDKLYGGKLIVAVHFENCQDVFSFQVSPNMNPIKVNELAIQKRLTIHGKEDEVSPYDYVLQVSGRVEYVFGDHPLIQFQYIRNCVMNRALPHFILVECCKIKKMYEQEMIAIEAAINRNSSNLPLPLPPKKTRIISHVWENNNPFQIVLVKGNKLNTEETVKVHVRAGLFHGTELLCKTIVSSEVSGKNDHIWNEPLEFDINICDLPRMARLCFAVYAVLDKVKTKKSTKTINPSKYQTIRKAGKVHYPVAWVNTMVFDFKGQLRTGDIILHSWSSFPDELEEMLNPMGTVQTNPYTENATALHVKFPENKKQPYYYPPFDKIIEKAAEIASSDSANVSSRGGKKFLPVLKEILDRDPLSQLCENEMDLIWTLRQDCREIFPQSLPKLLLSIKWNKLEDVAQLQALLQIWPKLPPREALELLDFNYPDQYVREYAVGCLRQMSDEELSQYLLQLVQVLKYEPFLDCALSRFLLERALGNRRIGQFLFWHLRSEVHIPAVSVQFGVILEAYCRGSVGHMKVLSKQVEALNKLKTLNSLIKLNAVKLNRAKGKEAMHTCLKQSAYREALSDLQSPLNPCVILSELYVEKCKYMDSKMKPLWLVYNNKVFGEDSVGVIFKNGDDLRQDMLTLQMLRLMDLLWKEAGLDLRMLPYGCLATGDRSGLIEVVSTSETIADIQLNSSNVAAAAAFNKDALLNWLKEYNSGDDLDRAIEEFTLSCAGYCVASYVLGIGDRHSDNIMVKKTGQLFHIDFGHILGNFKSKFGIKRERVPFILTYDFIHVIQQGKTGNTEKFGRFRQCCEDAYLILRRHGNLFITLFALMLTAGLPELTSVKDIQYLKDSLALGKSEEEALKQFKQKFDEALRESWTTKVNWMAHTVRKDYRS
Sequence of PIK3CB/PIK3R1 (p110 beta/p85 alpha) (P27986 whole entry partner): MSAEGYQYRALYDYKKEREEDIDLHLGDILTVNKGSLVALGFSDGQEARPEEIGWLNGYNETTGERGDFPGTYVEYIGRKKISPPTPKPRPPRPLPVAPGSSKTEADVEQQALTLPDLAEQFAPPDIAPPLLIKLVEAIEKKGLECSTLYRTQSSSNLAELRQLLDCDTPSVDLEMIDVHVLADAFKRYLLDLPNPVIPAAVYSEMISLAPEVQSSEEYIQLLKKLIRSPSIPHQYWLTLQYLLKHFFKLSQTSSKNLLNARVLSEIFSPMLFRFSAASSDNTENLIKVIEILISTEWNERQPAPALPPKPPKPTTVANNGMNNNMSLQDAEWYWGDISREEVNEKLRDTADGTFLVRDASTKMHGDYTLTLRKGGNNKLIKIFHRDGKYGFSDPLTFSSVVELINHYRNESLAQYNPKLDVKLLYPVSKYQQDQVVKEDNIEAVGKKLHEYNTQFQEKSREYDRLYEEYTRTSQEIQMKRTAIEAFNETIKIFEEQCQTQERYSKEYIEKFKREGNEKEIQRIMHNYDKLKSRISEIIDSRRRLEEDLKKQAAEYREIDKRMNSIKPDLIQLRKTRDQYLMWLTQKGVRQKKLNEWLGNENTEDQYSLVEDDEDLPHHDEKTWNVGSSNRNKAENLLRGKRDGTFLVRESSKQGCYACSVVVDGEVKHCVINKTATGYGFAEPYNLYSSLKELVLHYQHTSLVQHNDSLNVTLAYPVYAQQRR
Sequence of PKN1 (PRK1) (Q16512 whole entry): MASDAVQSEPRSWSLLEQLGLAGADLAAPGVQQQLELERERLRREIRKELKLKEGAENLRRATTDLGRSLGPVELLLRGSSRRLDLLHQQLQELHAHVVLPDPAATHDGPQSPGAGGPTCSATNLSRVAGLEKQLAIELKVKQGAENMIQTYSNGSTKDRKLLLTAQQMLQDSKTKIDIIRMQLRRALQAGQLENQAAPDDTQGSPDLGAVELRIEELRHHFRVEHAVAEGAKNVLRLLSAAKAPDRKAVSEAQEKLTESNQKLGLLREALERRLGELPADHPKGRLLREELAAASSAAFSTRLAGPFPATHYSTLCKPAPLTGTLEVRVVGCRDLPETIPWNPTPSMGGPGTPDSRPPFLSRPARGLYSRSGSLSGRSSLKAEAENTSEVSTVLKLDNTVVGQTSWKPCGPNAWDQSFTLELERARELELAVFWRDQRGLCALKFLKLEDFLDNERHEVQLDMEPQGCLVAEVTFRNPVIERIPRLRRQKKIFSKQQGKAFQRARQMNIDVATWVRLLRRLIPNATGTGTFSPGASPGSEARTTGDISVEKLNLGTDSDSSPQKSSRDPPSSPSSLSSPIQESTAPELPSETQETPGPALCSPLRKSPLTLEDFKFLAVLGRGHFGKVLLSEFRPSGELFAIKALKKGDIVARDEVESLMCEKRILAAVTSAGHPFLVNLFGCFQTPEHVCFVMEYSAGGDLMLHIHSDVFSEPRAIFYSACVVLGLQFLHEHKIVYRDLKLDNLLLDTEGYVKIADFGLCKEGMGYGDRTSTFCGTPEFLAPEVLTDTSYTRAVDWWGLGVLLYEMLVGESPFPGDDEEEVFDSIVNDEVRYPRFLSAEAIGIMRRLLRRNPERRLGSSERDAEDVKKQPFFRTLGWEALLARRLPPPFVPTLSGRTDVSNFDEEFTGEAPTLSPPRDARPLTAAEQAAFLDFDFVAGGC
Sequence of PTK2B (FAK2) (Q14289 whole entry): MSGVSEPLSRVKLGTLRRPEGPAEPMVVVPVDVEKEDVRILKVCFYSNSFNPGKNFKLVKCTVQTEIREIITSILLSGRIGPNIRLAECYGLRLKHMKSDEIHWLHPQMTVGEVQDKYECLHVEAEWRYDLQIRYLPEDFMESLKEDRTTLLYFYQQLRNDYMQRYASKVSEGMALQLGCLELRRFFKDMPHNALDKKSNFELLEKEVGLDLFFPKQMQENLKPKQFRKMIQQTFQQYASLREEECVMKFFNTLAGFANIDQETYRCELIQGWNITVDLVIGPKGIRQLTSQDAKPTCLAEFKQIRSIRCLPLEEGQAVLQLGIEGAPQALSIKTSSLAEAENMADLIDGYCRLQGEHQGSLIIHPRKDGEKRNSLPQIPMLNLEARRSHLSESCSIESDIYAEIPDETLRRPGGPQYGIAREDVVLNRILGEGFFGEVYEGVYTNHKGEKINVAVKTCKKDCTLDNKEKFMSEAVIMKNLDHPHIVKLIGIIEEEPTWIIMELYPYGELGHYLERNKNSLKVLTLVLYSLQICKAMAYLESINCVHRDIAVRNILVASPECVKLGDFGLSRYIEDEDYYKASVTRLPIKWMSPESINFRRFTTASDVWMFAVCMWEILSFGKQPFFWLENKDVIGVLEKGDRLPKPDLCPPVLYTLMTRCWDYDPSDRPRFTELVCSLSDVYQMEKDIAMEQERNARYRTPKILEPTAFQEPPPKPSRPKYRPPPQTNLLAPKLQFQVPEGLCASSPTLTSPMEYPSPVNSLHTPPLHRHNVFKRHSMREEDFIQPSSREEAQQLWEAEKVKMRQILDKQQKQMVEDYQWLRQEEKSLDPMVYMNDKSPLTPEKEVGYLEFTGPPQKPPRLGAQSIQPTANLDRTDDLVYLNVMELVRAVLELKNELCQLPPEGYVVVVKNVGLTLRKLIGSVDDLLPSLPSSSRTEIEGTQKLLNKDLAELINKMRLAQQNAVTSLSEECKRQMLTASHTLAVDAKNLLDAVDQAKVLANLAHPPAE

Work on C#CCOc1ccc(Nc2ncc(Cl)c(Nc3ccccc3NC(=O)C=C)n2)c(OC)c1 [Compound 6] yielded an inhibition at 1 µM (PAK1; 1 h) of 8%, an inhibition at 1 µM (PAK1; [4]) of 8% and an inhibition at 1 µM [1, 5] of -8%. For the same compound, the “Inhibition at 1 µM (%)” value ([1]; PIK3CB/PIK3R1 (p110 beta/p85 alpha), 1 µM, Adapta, ATP Km app, listed as WEL028, 1 µM) was -10% and -7%, the inhibition at 1 µM (PIK3CG (p110 gamma); [5]) was 13% and the “Inhibition at 1 µM (%)” value (PIK3CG (p110 gamma); PIK3CG (p110 gamma), 1 µM, Adapta, ATP Km app, listed as WEL028, 1 µM) was 18%. The inhibition at 1 µM (PIK3CG (p110 gamma); read-out: Inhibition at 1 µM (%), PIK3CG (p110 gamma), 1 µM, Adapta, ATP Km app) was 9%, the “Inhibition at 1 µM (%)” value (PIP5K1C; PIP5K1C, Adapta, ATP 10, listed as WEL028, 1 µM) was 1% and the inhibition at 1 µM (PIP5K1C; read-out: Inhibition at 1 µM (%), PIP5K1C, Adapta, ATP 10) was 2%. For the same compound, the inhibition at 1 µM (STK32C (YANK3); 1 h) was 3%, the inhibition at 1 µM (STK32C (YANK3); [4]) was 3% and the inhibition at 1 µM (CAMKK1 (CAMKKA); [5]) was 22%. For the same compound, the “Inhibition at 1 µM (%)” value (CAMKK1 (CAMKKA); CAMKK1 (CAMKKA), 1 µM, LanthaScreen Binding, listed as WEL028, 1 µM) was 24%, the inhibition at 1 µM (CAMKK1 (CAMKKA); read-out: Inhibition at 1 µM (%), CAMKK1 (CAMKKA), 1 µM, LanthaScreen Binding) was 20% and the inhibition at 1 µM (LYN A; [5]) was 5%. The “Inhibition at 1 µM (%)” value (LYN A; LYN A, 1 µM, ZLYTE, ATP Km app, listed as WEL028, 1 µM) was 6%, the inhibition at 1 µM (LYN A; read-out: Inhibition at 1 µM (%), LYN A, 1 µM, ZLYTE, ATP Km app) was 5% and the inhibition at 1 µM (PKN1 (PRK1); [5]) was 7%. The “Inhibition at 1 µM (%)” value (PKN1 (PRK1); PKN1 (PRK1), 1 µM, ZLYTE, ATP Km app, listed as WEL028, 1 µM) was 5%, the inhibition at 1 µM (PKN1 (PRK1); read-out: Inhibition at 1 µM (%), PKN1 (PRK1), 1 µM, ZLYTE, ATP Km app) was 8% and the “Selectivity window against the residual 354 kinases” value ([2]; 1 μM screen vs FES^S700C) was > 100 fold. For the same compound, the “Number of kinases with >50% inhibition” value ([2]; out of 380 tested kinases, 1 μM, 1 h preincubation) was 26, the inhibition at 1 µM (MAP3K10 (MLK2); [5]) was 4% and the “Inhibition at 1 µM (%)” value (MAP3K10 (MLK2); MAP3K10 (MLK2), 1 µM, LanthaScreen Binding, listed as WEL028, 1 µM) was 5%. The inhibition at 1 µM (MAP3K10 (MLK2); read-out: Inhibition at 1 µM (%), MAP3K10 (MLK2), 1 µM, LanthaScreen Binding) was 4%, the “Inhibition at 1 µM (%)” value (ROCK1; [6]) was -6% and 0% and the inhibition at 1 µM (ROCK1; [5]) was -3%. The inhibition at 1 µM (MAPK11 (p38 beta); [5]) was 6%, the “Inhibition at 1 µM (%)” value (MAPK11 (p38 beta); MAPK11 (p38 beta), 1 µM, ZLYTE, ATP Km app, listed as WEL028, 1 µM) was 7% and the inhibition at 1 µM (MAPK11 (p38 beta); read-out: Inhibition at 1 µM (%), MAPK11 (p38 beta), 1 µM, ZLYTE, ATP Km app) was 6%. The “Inhibition at 1 µM (%)” value (PTK2B (FAK2); [6]) was 37%, the inhibition at 1 µM (PTK2B (FAK2); [5]) was 34% and the inhibition at 1 µM (PTK2B (FAK2); read-out: Inhibition at 1 µM (%), 1 µM, ZLYTE, ATP Km app) was 32%. The inhibition at 1 µM (DAPK3 (ZIPK); [5]) was 4%, the “Inhibition at 1 µM (%)” value (DAPK3 (ZIPK)) was 2% and the “Inhibition at 1 µM (%)” value (DAPK3 (ZIPK); listed as WEL028, 1 µM) was 5%. For the same compound, the “Co-precipitation of SYK with FES” value [3] was “inhibited the co-precipitation of SYK with FES”, the “Inhibition (%)” value (CSNK1G1 (CK1 gamma 1); 1 μM WEL028, 1 h preincubation) was 4% and the “Inhibition at 1 µM (%)” value (CSNK1G1 (CK1 gamma 1)) was 2%. The “Inhibition at 1 µM (%)” value (CSNK1G1 (CK1 gamma 1); listed as WEL028, 1 µM) was 7%.
